US8921642B2, “Conditional-stop dimerizable caspase transgenic animals” (Massachusetts Eye and Ear Infirmary, priority 2008, dated 2014)

Columns and labels:
[1] = system: Rosa26-CreER (Cre recombinase); experiment: tamoxifen-induced Cre recombination in cells from Rosa26-CreER double transgenic mice; format: cell-based, mouse; settings: cells from line F x Rosa26-CreER double transgenic mice, in the presence of tamoxifen
Excerpt: To provide a model for ready confirmation of the function of the conditional-stop dimerizable caspase transgene, the transgenic mice described herein (line F) were crossed with Rosa26-CreER mice. In vitro experiments on cells from the mice were contacted with tamoxifen to induce expression of the Cre recombinase, and the results, shown in FIG. 13, indicate successful recombination and expression of the transgene.

[2] = system: inner and outer hair cells; experiment: organ of Corti explant culture of double transgenics in medium containing AP20187; format: cell-based, mouse; settings: within 24 hours of incubation
native FKBPs = native FKBPs (Homo sapiens, UniProt P62942); settings: cited from earlier work
Sequence of native FKBPs (P62942 whole entry): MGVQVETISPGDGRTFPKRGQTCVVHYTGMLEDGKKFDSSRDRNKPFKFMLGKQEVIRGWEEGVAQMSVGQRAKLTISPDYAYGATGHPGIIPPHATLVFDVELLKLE

[3] = molecular target: FKBPs with a single amino acid substitution: Phe36Val (Homo sapiens, UniProt P62942, F37V); settings: cited from earlier work
Sequence of FKBPs with a single amino acid substitution: Phe36Val (P62942 2-108 F37V limits assumed): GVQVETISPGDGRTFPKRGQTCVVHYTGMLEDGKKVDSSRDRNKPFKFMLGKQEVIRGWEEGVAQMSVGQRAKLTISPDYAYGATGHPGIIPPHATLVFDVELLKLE

auditory hair cells = experiment: in vivo hair cell ablation and hearing loss in Brn3c-Cre double transgenic mice; parameters: species or system mouse
Excerpt: Auditory hair cells are the mechanosensory channel that transduce sound waves to action potentials. Since mammalian hair cells cannot spontaneously regenerate once lost, regenerative medicine for hearing loss would be of great importance, and it has been difficult to establish a reproducible model for ablation of hair cells. The transgenic mice described herein (line D) were mated with a hair cell-specific, Brn3c-Cre mouse from Doug Vetter (Xiang et al., Proc. Natl. Acad. Sci. U.S.A. 94(17):9445-50 (1997); Sage et al., Proc. Nat. Acad. Sci. 103(19):7345-7350 (2006)).
In vivo experiments were also performed. Animals at 6-8 weeks of age were administered AP20187 (10 mg/kg ip) and analyzed six days later. […] Approximately 35˜40% of inner hair cells and 15% of outer hair cells were lost, as judged by Pv3 staining.

[4] = system: cells cotransfected with pCAN-Cre and pCMVflox (dimerizable caspase); experiment: MTT assay of cell viability after dimerizer treatment of transfected cells; format: cell-based; settings: treated 24 hours after transfection, read 48 hours later; only in the group where both Cre-recombinase and transgene were transfected
Method: To confirm that the system works, the effect of the dimerizer, AP20187, was examined in vitro on cells that were transfected with either pCAN-Cre or pCMVflox, or cotransfected with both. 24 hours after transfection, cells were treated with the dimerizer AP20187, and 48 hours later cell-viability/dying cells were examined using a standard MTT (3-(4,5-dimethylthiazol-2-yl)-2,5-diphenyltetrazolium bromide) assay.

[5] = system: beta cells of the pancreas; experiment: in vivo beta cell ablation in Ins-Cre double transgenic mice (IPGTT, GTT); parameters: species or system mouse
Method: Diabetes is cause by loss of insulin producing beta cells in the pancreas. These cells cannot be replaced by known techniques. A model for impaired glucose tolerance was constructed by crossing the transgenic mouse (line B) described herein with an Ins-Cre mouse (Jackson Labs). […] This model has the characteristics of a pre-diabetic mouse.
The FK506 analogue AP20187 was administered by intraperitoneal (IP) injection. β-cell death was monitored in the animals by intraperitoneal glucose tolerance testing (IPGTT) using standard methodology.
The effect on blood glucose levels was also evaluated using a standard glucose tolerance test (GTT). 30 minutes after a glucose challenge, a blood sample was obtained from the tail vein and a measurement of blood glucose was obtained with a glucose monitor.

[6] = system: cells co-transfected with Cre and dimerizable caspase-3 transgene; experiment: LIVE/DEAD analysis of co-transfected cells versus original pSHMFv2Caspase3E; format: cell-based; settings: LIVE/DEAD analysis in the presence of AP20187
Excerpt: To determine the extent of cell ablation, the co-transfected cells were compared with the original pSHMFv2Caspase3E in the presence of AP20187 using LIVE/DEAD analysis (Invitrogen). The number of dying cells and the decrease in cell viability was almost same in the co-transfected group as compared to the original plasmid transfection group (FIGS. 6B-6C).

[7] = 10 mg/kg ip, six days later, treated animals
[8] = immunohistochemistry after AP20187 administration

| SMILES | recombination of the transgene (PCR product on gel) [1] | inner hair cell loss [2] [%] | outer hair cell loss [2] [%] | binding to the native FKBPs (native FKBPs) | binding to FKBPs with Phe36Val substitution [3] | decrease in the amplitude of the auditory brainstem response (ABR) (auditory hair cells; 10 mg/kg ip, analyzed six days later, compared with same-animal measurements before treatment) [%] | inner hair cells lost after drug treatment (auditory hair cells; 10 mg/kg ip, six days later) [%] | ISO-DP (threshold required to obtain a given level of response) (auditory hair cells; [7]) | distortion product otoacoustic emissions (DPOAE) (auditory hair cells; [7]) | changes in the spiral ganglion (auditory hair cells; [8]) | inner hair cells lost, as judged by Pv3 staining (auditory hair cells; [8]) | outer hair cells lost, as judged by Pv3 staining (auditory hair cells; [8]) [%] | cell viability by MTT assay [4] | blood glucose levels in glucose tolerance test (GTT) ([5]; 30 minutes after a glucose challenge, tail vein blood) | glucose control by intraperitoneal glucose tolerance testing (IPGTT) ([5]; IP injection, Ins-Cre double transgenic animals, more pronounced in females than in males) | number of dying cells and decrease in cell viability, co-transfected group compared to original plasmid transfection group [6] |
| --- | --- | --- | --- | --- | --- | --- | --- | --- | --- | --- | --- | --- | --- | --- | --- | --- |
| CC/C(=C(\c1ccccc1)c1ccc(OCCN(C)C)cc1)c1ccccc1 [tamoxifen] | recombined product at 200 bp is present | – | – | – | – | – | – | – | – | – | – | – | – | – | – | – |
| CC[C@H](C(=O)N1CCCC[C@H]1C(=O)O[C@H](CCc1ccc(OC)c(OC)c1)c1cccc(OCC(=O)NCC(CNC(=O)COc2cccc([C@@H](CCc3ccc(OC)c(OC)c3)OC(=O)[C@@H]3CCCCN3C(=O)[C@@H](CC)c3cc(OC)c(OC)c(OC)c3)c2)CN(C)C)c1)c1cc(OC)c(OC)c(OC)c1 [AP20187] | – | 38.8 | 32.4 | do not bind | bind with high affinity | 60 | 37.8 | significantly increased | significantly decreased | No remarkable changes | 35˜40% | ~15 | significantly reduced | significant increased | partial loss of glucose control | almost same |
